In the NIST ThermoML archive (doi:10.1021/je050156k):
± gives the expanded uncertainty stated by the source.

Conditions: Liquid; for mass density: 101.33 kPa; for vapor or sublimation pressure: Closed cell (Static) method

C1CCC2OC2C1 (stereo unspecified) [7-oxabicyclo[4.1.0]heptane]
Conditions	mass density [kg/m3]	vapor or sublimation pressure [kPa]
277.7 K	988.4 ± 2.5	–
289 K	978 ± 2.4	–
293.2 K	972.2 ± 2.3	–
303.2 K	963.8 ± 2.4	–
313.2 K	955 ± 2.5	–
323.2 K	944.8 ± 2.6	–
333.2 K	935.4 ± 2.8	–
343.2 K	925.5 ± 2.9	–
353.2 K	915.7 ± 3.1	–
360.91 K	–	25.5 ± 1.5
361.13 K	–	25.8 ± 1.5
363.2 K	903.9 ± 3.2	–
382.47 K	–	52.4 ± 1.5
383.09 K	–	53.6 ± 1.5
404.87 K	–	101.3 ± 10
405.48 K	–	103.8 ± 10
423.87 K	–	167 ± 10
443.95 K	–	268 ± 10
453.99 K	–	333 ± 10
463.99 K	–	409 ± 10
474.03 K	–	497 ± 10
